Results as given in article PMC3857843, “Multiple Transport-Active Binding Sites Are Available for a Single Substrate on Human P-Glycoprotein (ABCB1)” (PLoS ONE, 2013).

Columns and labels:
all mutant Pgps = assay: Vanadate-sensitive ATP hydrolysis of Pgp in crude membranes; assay type: biochemical, human; conditions: all mutant Pgps; inhibition measured in presence of verapamil 5 µM
Description: Crude membranes were prepared as described previously

[1] = molecular target: Q725C/V982C mutant Pgp (human MDR1) (Homo sapiens, UniProt P08183, C1074A/C1125A/C1227A/C137A/C431A/C717A/C956A/Q725C/V982C); assay: in vitro; conditions: pH 6.8
Description: (§1) Then, samples were photocrosslinked with IAAP at 4°C as described in the Materials and Methods section. Mean values from at least three independent experiments are plotted and error bars depict SD.
(§2) High-Five insect cells (Invitrogen, Carlsbad, CA) were infected with recombinant baculovirus carrying the human MDR1 cDNA cysless WT and various mutant Pgps, with a His6-tag at the C-terminus as described previously. Crude membranes were prepared as described previously
(§3) The crude membranes of High-Five insect cells containing 60-80 µg protein per 100 µL in 50 mM MES-Tris buffer (pH 6.8), were incubated for 10 minutes at 37°C in the absence (control) and presence of compound(s) at indicated concentration.

[2] = molecular target: Q725C mutant Pgp (human MDR1) (Homo sapiens, UniProt P08183, C1074A/C1125A/C1227A/C137A/C431A/C717A/C956A/Q725C); assay: in vitro; conditions: pH 6.8
Description: as §1, §2, §3

[3] = molecular target: F728C mutant Pgp (human MDR1) (Homo sapiens, UniProt P08183, C1074A/C1125A/C1227A/C137A/C431A/C717A/C956A/F728C); assay: in vitro; conditions: pH 6.8
Description: as §1, §2, §3

[4] = molecular target: Y307C/Q725C/V982C mutant Pgp (human MDR1) (Homo sapiens, UniProt P08183, C1074A/C1125A/C1227A/C137A/C431A/C717A/C956A/Q725C/V982C/Y307C); assay: in vitro; conditions: human, pH 6.8
Description: as §1, §2, §3

F978C mutant Pgp [5] = molecular target: T1, F978C mutant Pgp (Homo sapiens, UniProt P08183, C1074A/C1125A/C1227A/C137A/C431A/C717A/C956A/F978C); assay: biochemical
Description: as §1, §2, §3

[6] = molecular target: cysless WT Pgp (human MDR1) (Homo sapiens, UniProt P08183, C1074A/C1125A/C1227A/C137A/C431A/C717A/C956A); assay: in vitro; conditions: human, pH 6.8
Description: as §1, §2, §3

cysless WT Pgp [7] = molecular target: T2, cysless WT Pgp (Homo sapiens, UniProt P08183, C1074A/C1125A/C1227A/C137A/C431A/C717A/C956A); assay: Inhibition of IAAP photo-labeling of Pgp in crude membranes
Description: as §1, §2, §3

[8] = molecular target: T3, Y307C/Q725C/V982C mutant Pgp (Homo sapiens, UniProt P08183, C1074A/C1125A/C1227A/C137A/C431A/C717A/C956A/Q725C/V982C/Y307C); assay: in vitro
Description: as §1, §2, §3

[9] = molecular target: V982C mutant Pgp (human MDR1) (Homo sapiens, UniProt P08183, C1074A/C1125A/C1227A/C137A/C431A/C717A/C956A/V982C); assay: in vitro; conditions: human, pH 6.8
Description: as §1, §2, §3

[10] = molecular target: F978C mutant Pgp (human MDR1) (Homo sapiens, UniProt P08183, C1074A/C1125A/C1227A/C137A/C431A/C717A/C956A/F978C); assay: in vitro; conditions: human, pH 6.8
Description: as §1, §2, §3

V982C mutant Pgp [11] = molecular target: T4, V982C mutant Pgp (Homo sapiens, UniProt P08183, C1074A/C1125A/C1227A/C137A/C431A/C717A/C956A/V982C); assay: biochemical
Description: as §1, §2, §3

Q725C/V982C mutant Pgp = Q725C/V982C mutant Pgp (Homo sapiens, UniProt P08183, C1074A/C1125A/C1227A/C137A/C431A/C717A/C956A/Q725C/V982C); assay: Vanadate-sensitive ATP hydrolysis of Pgp in crude membranes; conditions: Verapamil 50 µM, QZ59-SSS 1 µM, Valinomycin 10 µM, FSBA 1 mM
Description: (§4) Vanadate-sensitive Pgp-mediated ATP hydrolysis was measured as described in Materials and Methods. […] At least two independent experiments were carried out for each mutant with indicated compounds. Additional information including standard deviations, fold-stimulation or % inhibition, and number of experiments is given in the section (Tables S2 and S3).
as §2
(§5) Crude membranes (10-25 µg protein/100 µ L) from High Five insect cells expressing cysless WT or mutant Pgp were incubated in the presence and absence of sodium orthovanadate (0.3 mM), in a buffer containing 50 mM MES-Tris pH 6.8, 50 mM KCl, 5 mM NaN3, 1 mM EGTA, 1 mM ouabain, 2 mM DTT, and 10 mM MgCl2. […] The reaction was initiated by addition of 5 mM ATP and continued for 20 min at 37°C. […] The reaction was stopped by addition of 100 µ L of 5% SDS and the amount of inorganic phosphate generated was quantified with a colorimetric reaction, as previously described.

Q725C mutant Pgp = Q725C mutant Pgp (Homo sapiens, UniProt P08183, C1074A/C1125A/C1227A/C137A/C431A/C717A/C956A/Q725C); assay: as above; conditions: Verapamil 50 µM, QZ59-SSS 1 µM, Valinomycin 10 µM, FSBA 1 mM
Description: as §4, §2, §5

Y307C/V982C mutant Pgp = Y307C/V982C mutant Pgp (Homo sapiens, UniProt P08183, C1074A/C1125A/C1227A/C137A/C431A/C717A/C956A/V982C/Y307C); assay: as above; conditions: Verapamil 50 µM, QZ59-SSS 1 µM, Valinomycin 10 µM, FSBA 1 mM
Description: as §4, §2, §5

F343C/V982C mutant Pgp = F343C/V982C mutant Pgp (Homo sapiens, UniProt P08183, C1074A/C1125A/C1227A/C137A/C431A/C717A/C956A/F343C/V982C); assay: as above; conditions: Verapamil 50 µM, QZ59-SSS 1 µM, Valinomycin 10 µM, FSBA 1 mM
Description: as §4, §2, §5

F728C/V982C mutant Pgp = F728C/V982C mutant Pgp (Homo sapiens, UniProt P08183, C1074A/C1125A/C1227A/C137A/C431A/C717A/C956A/F728C/V982C); assay: as above; conditions: Verapamil 50 µM, QZ59-SSS 1 µM, Valinomycin 10 µM, FSBA 1 mM
Description: as §4, §2, §5

Q725A mutant Pgp = Q725A mutant Pgp (Homo sapiens, UniProt P08183, C1074A/C1125A/C1227A/C137A/C431A/C717A/C956A/Q725A); assay: as above; conditions: Verapamil 50 µM, QZ59-SSS 1 µM, Valinomycin 10 µM
Description: as §4, §2, §5

F978C mutant Pgp [12] = molecular target: T1, F978C mutant Pgp; assay: as above; conditions: Verapamil 50 µM, QZ59-SSS 1 µM, Valinomycin 10 µM
Description: as §4, §2, §5

F728C mutant Pgp = F728C mutant Pgp (Homo sapiens, UniProt P08183, C1074A/C1125A/C1227A/C137A/C431A/C717A/C956A/F728C); assay: as above; conditions: Verapamil 50 µM, QZ59-SSS 1 µM, Valinomycin 10 µM, FSBA 1 mM
Description: as §4, §2, §5

cysless WT Pgp [13] = molecular target: T2, cysless WT Pgp; assay: as above; conditions: Verapamil 50 µM, QZ59-SSS 1 µM, Valinomycin 10 µM, FSBA 1 mM
Description: as §4, §2, §5

Y307C mutant Pgp = Y307C mutant Pgp (Homo sapiens, UniProt P08183, C1074A/C1125A/C1227A/C137A/C431A/C717A/C956A/Y307C); assay: as above; conditions: Verapamil 50 µM, QZ59-SSS 1 µM, Valinomycin 10 µM, FSBA 1 mM
Description: as §4, §2, §5

[14] = molecular target: T3, Y307C/Q725C/V982C mutant Pgp; assay: as above; conditions: Verapamil 50 µM, QZ59-SSS 1 µM, Valinomycin 10 µM, FSBA 1 mM
Description: as §4, §2, §5

V982C mutant Pgp [15] = molecular target: T4, V982C mutant Pgp; assay: as above; conditions: Verapamil 50 µM, QZ59-SSS 1 µM, Valinomycin 10 µM, FSBA 1 mM
Description: as §4, §2, §5

COc1cc2c(cc1OC)CN(CCc1ccc(NC(=O)c3cc(OC)c(OC)cc3NC(=O)c3cnc4ccccc4c3)cc1)CC2 [Tariquidar, tariquidar]
Modulation of ATP hydrolysis (all mutant Pgps): found to be inhibited
inhibition at 10 min [1]: 22%
inhibition at 10 min [2]: 37%
inhibition at 10 min [3]: 40%
inhibition at 10 min [4]: 23%
IC50 (F978C mutant Pgp [5]): 3600 nM
inhibition at 10 min [6]: 97 ± 4%
IC50 (cysless WT Pgp [7]): 140 ± 30 nM
Ability to inhibit IAAP photo-labeling [8]: lose almost completely this ability
inhibition at 10 min [9]: 64%
inhibition at 10 min [10]: 73%
IC50 (V982C mutant Pgp [11]): 700 nM

CC(C)[C@@H]1NC(=O)[C@H](C)OC(=O)[C@@H](C(C)C)NC(=O)[C@@H](C(C)C)OC(=O)[C@H](C(C)C)NC(=O)[C@H](C)OC(=O)[C@@H](C(C)C)NC(=O)[C@@H](C(C)C)OC(=O)[C@H](C(C)C)NC(=O)[C@H](C)OC(=O)[C@@H](C(C)C)NC(=O)[C@@H](C(C)C)OC1=O [valinomycin]
ATP hydrolysis, Average (Q725C/V982C mutant Pgp): 5 nmoles Pi/min/mg protein
ATP hydrolysis, Average (Q725C mutant Pgp): 12 nmoles Pi/min/mg protein
ATP hydrolysis, Fold-stimulation (Q725C mutant Pgp; relative to basal): 2.5
ATP hydrolysis, Average (Y307C/V982C mutant Pgp): 33 nmoles Pi/min/mg protein
ATP hydrolysis, Fold-stimulation (Y307C/V982C mutant Pgp; relative to basal): 3.5
ATP hydrolysis, Average (F343C/V982C mutant Pgp): 56 nmoles Pi/min/mg protein
ATP hydrolysis, Fold-stimulation (F343C/V982C mutant Pgp; relative to basal): 3.1
ATP hydrolysis, Average (F728C/V982C mutant Pgp): 10 nmoles Pi/min/mg protein
ATP hydrolysis, Fold-stimulation (F728C/V982C mutant Pgp; relative to basal): 2.5
ATP hydrolysis, Average (Q725A mutant Pgp): 11 nmoles Pi/min/mg protein
ATP hydrolysis, Fold-stimulation (Q725A mutant Pgp; relative to basal): 2.1
ATP hydrolysis, Average (F978C mutant Pgp [12]): 18 nmoles Pi/min/mg protein
ATP hydrolysis, Fold-stimulation (F978C mutant Pgp [12]; relative to basal): 1.5
ATP hydrolysis, Average (F728C mutant Pgp): 23 nmoles Pi/min/mg protein
ATP hydrolysis, Fold-stimulation (F728C mutant Pgp; relative to basal): 3.9
ATP hydrolysis, Average (cysless WT Pgp [13]): 40 nmoles Pi/min/mg protein
ATP hydrolysis, Fold-stimulation (cysless WT Pgp [13]; relative to basal): 1.9
ATP hydrolysis, Average (Y307C mutant Pgp): 17 nmoles Pi/min/mg protein
ATP hydrolysis, Fold-stimulation (Y307C mutant Pgp; relative to basal): 2.2
ATP hydrolysis, Average [14]: 14 nmoles Pi/min/mg protein
ATP hydrolysis, Fold-stimulation ([14]; relative to basal): 2.8
ATP hydrolysis, Average (V982C mutant Pgp [15]): 13 nmoles Pi/min/mg protein
inhibition at 10 min [6]: 82%
IC50 (cysless WT Pgp [7]): 600 nM
Ability to inhibit IAAP photo-labeling ([8]; Y307C/Q725C/V982C): lose almost completely this ability
